Test results published in PubChem BioAssay (NCI).
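Protocol summary: plate cells (96-well), add compound at 5 concentrations, incubate 48 h, interpolate endpoints linearly. TGI marks complete inhibition of growth.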

Legend:
Experiment in all cases: growth of human tumour cells (NCI), 48 h
[1] = test system: EKVX NSCLC
[2] = test system: HCT-116 colon
[3] = test system: UACC-257 melanoma
[4] = test system: MDA-N
[5] = test system: OVCAR-8 ovarian
[6] = test system: UACC-62 melanoma
[7] = test system: OVCAR-4 ovarian
[8] = test system: SK-MEL-2 melanoma
[9] = test system: PC-3 prostate
[10] = test system: NCI-H522 lung
[11] = test system: HCC-2998 colon
[12] = test system: T-47D breast
[13] = test system: SW-620 colon
[14] = test system: NCI/ADR-RES ovarian
[15] = test system: HCT-15 colon
[16] = test system: OVCAR-5 ovarian
[17] = test system: SR leukemia
[18] = test system: NCI-H23 lung
[19] = test system: SF-268 CNS
[20] = test system: HOP-62 NSCLC
[21] = test system: HL-60(TB) leukemia
[22] = test system: OVCAR-3 ovarian
[23] = test system: RXF 393 renal
[24] = test system: MALME-3M melanoma
[25] = test system: HT29 colon
[26] = test system: NCI-H460 lung
[27] = test system: A498 renal
[28] = test system: SNB-75 CNS
[29] = test system: COLO 205 colon
[30] = test system: SF-539 CNS
[31] = test system: HOP-92 NSCLC
[32] = test system: TK-10 renal
[33] = test system: SF-295 CNS
[34] = test system: IGROV1 ovarian
[35] = test system: K-562 leukemia
[36] = test system: SK-MEL-28 melanoma
[37] = test system: SK-MEL-5 melanoma
[38] = test system: CCRF-CEM leukemia
[39] = test system: SNB-19 CNS
[40] = test system: NCI-H226 lung
[41] = test system: MDA-MB-435
[42] = test system: BT-549 breast
[43] = test system: MOLT-4 leukemia
[44] = test system: 786-0 renal
[45] = test system: UO-31 renal
[46] = test system: ACHN renal
[47] = test system: KM12 colon
[48] = test system: CAKI-1 renal
[49] = test system: A549 NSCLC
[50] = test system: DU-145 prostate
[51] = test system: SN12C renal
[52] = test system: RPMI-8226 leukemia
[53] = test system: MCF7 breast
[54] = test system: HS 578T breast
[55] = test system: M14 melanoma
[56] = test system: LOX IMVI melanoma
[57] = test system: U251 CNS
[58] = test system: MDA-MB-231 breast
[59] = test system: SK-OV-3 ovarian

With `COC(=O)c1ccccc1/C=C1\Cc2c(ccc3c2CCC3)C1=O` the TGI [1] was > 100 µM, the TGI [2] was > 100 µM and the TGI [3] was > 100 µM. For the same compound, the TGI [4] was > 100 µM, the TGI [5] was > 100 µM and the TGI [6] was > 100 µM. For the same compound, the TGI [7] was > 100 µM, the TGI [8] was > 100 µM and the TGI [9] was > 100 µM. The TGI [10] was > 100 µM, the TGI [11] was > 100 µM and the TGI [12] was > 100 µM. For the same compound, the TGI [13] was > 100 µM, the TGI [14] was > 100 µM and the TGI [15] was > 100 µM. The TGI [16] was > 100 µM, the TGI [17] was > 100 µM and the TGI [18] was > 100 µM. For the same compound, the TGI [19] was > 100 µM, the TGI [20] was > 100 µM and the TGI [21] was > 100 µM. For the same compound, the TGI [22] was > 100 µM, the TGI [23] was > 100 µM and the TGI [24] was > 100 µM. The TGI [25] was > 100 µM, the TGI [26] was > 100 µM and the TGI [27] was > 100 µM. For the same compound, the TGI [28] was > 100 µM, the TGI [29] was > 100 µM and the TGI [30] was > 100 µM. For the same compound, the TGI [31] was > 100 µM, the TGI [32] was > 100 µM and the TGI [33] was > 100 µM. For the same compound, the TGI [34] was > 100 µM, the TGI [35] was > 100 µM and the TGI [36] was > 100 µM. The TGI [37] was > 100 µM, the TGI [38] was > 100 µM and the TGI [39] was > 100 µM. For the same compound, the TGI [40] was > 100 µM, the TGI [41] was > 100 µM and the TGI [42] was > 100 µM. For the same compound, the TGI [43] was > 100 µM, the TGI [44] was > 100 µM and the TGI [45] was > 100 µM. The TGI [46] was > 100 µM, the TGI [47] was > 100 µM and the TGI [48] was > 100 µM. The TGI [49] was > 100 µM, the TGI [50] was > 100 µM and the TGI [51] was > 100 µM. The TGI [52] was > 100 µM, the TGI [53] was > 100 µM and the TGI [54] was > 100 µM. The TGI [55] was > 100 µM, the TGI [56] was > 100 µM and the TGI [57] was > 100 µM.
With `O=C1NC(=O)c2ccc([N+](=O)[O-])c3cccc1c23` the TGI [1] was 62.4 µM, the TGI [2] was 23.9 µM and the TGI [3] was 33.1 µM. It also gave a TGI [4] of 26.8 µM, a TGI [5] of 26.1 µM and a TGI [6] of 27 µM. It also gave a TGI [7] of 35.5 µM, a TGI [8] of 84.1 µM and a TGI [9] of 32 µM. It also gave a TGI [10] of 6.11 µM, a TGI [11] of 52.3 µM and a TGI [12] of 44 µM. It also gave a TGI [13] of 25.7 µM, a TGI [15] of 22.4 µM and a TGI [58] of 34.5 µM. It also gave a TGI [16] of 32.3 µM, a TGI [18] of 33.7 µM and a TGI [19] of 62 µM. It also gave a TGI [20] of 49.2 µM, a TGI [23] of 29.1 µM and a TGI [25] of 39.3 µM. The TGI [26] was 29.7 µM, the TGI [27] was 29.1 µM and the TGI [28] was 85.9 µM. The TGI [29] was 30.9 µM, the TGI [30] was 31.8 µM and the TGI [31] was 37.2 µM. For the same compound, the TGI [32] was 45.8 µM, the TGI [33] was 32.8 µM and the TGI [34] was 31 µM. It also gave a TGI [35] of 32.7 µM, a TGI [36] of 37.8 µM and a TGI [37] of 34.6 µM. The TGI [59] was 50.9 µM, the TGI [39] was 33.7 µM and the TGI [40] was 43.6 µM. It also gave a TGI [41] of 29.9 µM, a TGI [42] of 33.7 µM and a TGI [44] of 27 µM. It also gave a TGI [45] of 29.8 µM, a TGI [46] of 33.7 µM and a TGI [48] of 39 µM. For the same compound, the TGI [49] was 43.9 µM, the TGI [50] was > 100 µM and the TGI [51] was 32.1 µM. For the same compound, the TGI [52] was 37.7 µM, the TGI [53] was 27.9 µM and the TGI [54] was 61 µM. The TGI [55] was 28.4 µM and the TGI [57] was 32.3 µM.
